From paper PMC12305662, “Fragment-Based Development of Small Molecule Inhibitors Targeting Mycobacterium tuberculosis Cholesterol Metabolism” (Journal of Medicinal Chemistry, 2025)
Values after ≈ are worked out from the molar mass of the structure shown. Values joined by “and” are separate entries in the source; they are usually repeats but may differ in a detail not shown here. Equal values may be shown once. Read-outs that look alike come from different tables or passages of the source.

Legend:
CYP142 [1] = target: T1, CYP142 (Mycobacterium tuberculosis, UniProt P9WPL5); details: compound 100 µM, P450 5 µM
CYP142 [2] = target: T1, CYP142; test: biochemical
CYP125 [3] = target: T2, CYP125 (Mycobacterium tuberculosis, UniProt P9WPP1); test: biochemical; assay type: binding; details: read-out: KD (μM) CYP125
CYP125 [4] = target: T2, CYP125; assay type: binding; details: compound 100 µM, P450 5 µM; for CYP125 Δλmax (nm) LS: low spin population, '-' = no LS maxima present
Mtb CDC1551 [5] = test: Depletion of intracellular ATP (BacTiter Glo), Mtb on cholesterol; assay type: cell-based; details: Mycobacterium tuberculosis, cholesterol as sole carbon source
CYP125 [6] = target: T2, CYP125; test: LC-MS substrate turnover assay (cholest-4-en-3-one); assay type: biochemical; details: for IC50: CYP125 0.5 μM, cholest-4-en-3-one 5 µM, LC-MS, read-out: CYP125A1 IC50; for Ki: estimated by Cheng-Prusoff, cholest-4-en-3-one Km CYP125 = 2.1 µM, read-out: CYP125A1 KI
Mtb H37Rv [7] = test: Extracellular Mtb growth on cholesterol, MABA MIC99; assay type: cell-based, Mycobacterium tuberculosis; details: read-out: MABA-MIC99 (W2) H37Rv, cholesterol
Mtb CDC1551 [8] = test: as above; assay type: cell-based, Mycobacterium tuberculosis; details: read-out: MABA-MIC99 (W2) CDC1551, cholesterol
Mtb H37Rv [9] = test: Depletion of intracellular ATP (BacTiter Glo), Mtb on cholesterol; assay type: cell-based, Mycobacterium tuberculosis; details: cholesterol as sole carbon source
Mtb H37Rv [10] = tested on: Mtb H37Rv
Procedure: (§1) (Mtb) H37Rv or CDC1551 strains were grown in Middlebrook 7H9 broth medium (Difco) supplemented with 0.3 g/L casitone, 0.81 g/L NaCl, 0.05% (v/v) tyloxapol, and either 97 mg/L cholesterol, 4 g/L glucose, or 0.2% glycerol. For inhibitor assays, a 10-fold serial dilution of the test compounds was made in the desired medium in duplicate rows of a 96-well plate. Mtb cells were then added to all the wells at the final concentration of 1 × 10^4 CFU, and plates were incubated at 37 °C for up to 15 days. Minimum inhibitory concentrations (MIC99) were determined using the Microplate Alamar Blue Assay (MABA) on day 15.
(§2) BacTiter Glo reagent (Promega) was added to microtiter plates (1:10 dilution) and luminescence was recorded after 15 min of incubation at room temperature. […] Isoniazid or p-amino salicylic acid were used as positive control compounds for all experiments. Reported MIC and IC50 values are the mean of duplicate treatments.

Mtb CDC1551 [11] = test: Depletion of intracellular ATP, Mtb on glucose; details: glucose as sole carbon source
Procedure: as §1, §2

H37Rv Mtb = test: Extracellular Mtb growth, MABA MIC90 (drug susceptible strain); assay type: cell-based; details: Mycobacterium tuberculosis
[12] = tested on: MDR-TB strain K26b00MR 113; test: microbe, parasite or virus in culture; assay type: cell-based, Mycobacterium tuberculosis; details: for MIC90: Mycobacterium tuberculosis
[13] = tested on: Mtb H37Rv pATB45luc in THP-1 macrophages; test: microbe, parasite or virus in culture; assay type: cell-based; details: Mycobacterium tuberculosis, 120 h, 5 days post-compound treatment, mean ± SD n = 2, read-out: intracellular growth Mtb IC50
Mtb (Erdman) = test: Extracellular Mtb (Erdman) growth on cholesterol-supplemented (0.01%) media, MABA; assay type: cell-based, Mycobacterium tuberculosis; details: MABA 1 week post-compound treatment, mean ± SD n = 3, read-out: mixed media IC50 (Erdman)
CYP142 [14] = target: T1, CYP142
[15] = CDC1551, 168 h, 1 week post-compound treatment, read-out: ATP-IC50 (W1) CDC1551, cholesterol
[16] = CDC1551, 336 h, 2 weeks post-compound treatment, read-out: ATP-IC50 (W2) CDC1551, cholesterol
[17] = Mycobacterium tuberculosis, H37RV, 336 h, cholesterol as sole carbon source, 2 weeks post-compound treatment
[18] = Mycobacterium tuberculosis, CDC1551, 336 h, cholesterol as sole carbon source, 2 weeks post-compound treatment
[19] = cholesterol as sole carbon source, 2 weeks post-compound treatment
[20] = Mycobacterium tuberculosis, H37RV, 168 h, 1 week post-compound treatment, read-out: ATP-IC50 (W1) H37Rv, cholesterol
[21] = Mycobacterium tuberculosis, H37RV, 336 h, 2 weeks post-compound treatment, read-out: ATP-IC50 (W2) H37Rv, cholesterol
[22] = read-out: ATP IC50 (W1) CDC1551, glucose media, 1 week
[23] = read-out: ATP IC50 (W2) CDC1551, glucose media, 2 weeks

T1 sequence (P9WPL5 whole entry): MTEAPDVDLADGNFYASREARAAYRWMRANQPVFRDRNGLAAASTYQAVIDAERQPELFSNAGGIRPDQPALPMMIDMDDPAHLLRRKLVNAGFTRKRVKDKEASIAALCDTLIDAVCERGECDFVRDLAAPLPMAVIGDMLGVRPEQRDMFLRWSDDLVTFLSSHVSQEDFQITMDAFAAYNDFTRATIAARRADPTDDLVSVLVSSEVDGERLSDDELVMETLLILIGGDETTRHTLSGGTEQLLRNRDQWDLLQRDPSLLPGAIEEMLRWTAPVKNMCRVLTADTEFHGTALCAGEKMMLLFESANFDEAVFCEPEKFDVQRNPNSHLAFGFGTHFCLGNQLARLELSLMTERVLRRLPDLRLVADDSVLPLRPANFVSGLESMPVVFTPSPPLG
T2 sequence (P9WPP1 whole entry): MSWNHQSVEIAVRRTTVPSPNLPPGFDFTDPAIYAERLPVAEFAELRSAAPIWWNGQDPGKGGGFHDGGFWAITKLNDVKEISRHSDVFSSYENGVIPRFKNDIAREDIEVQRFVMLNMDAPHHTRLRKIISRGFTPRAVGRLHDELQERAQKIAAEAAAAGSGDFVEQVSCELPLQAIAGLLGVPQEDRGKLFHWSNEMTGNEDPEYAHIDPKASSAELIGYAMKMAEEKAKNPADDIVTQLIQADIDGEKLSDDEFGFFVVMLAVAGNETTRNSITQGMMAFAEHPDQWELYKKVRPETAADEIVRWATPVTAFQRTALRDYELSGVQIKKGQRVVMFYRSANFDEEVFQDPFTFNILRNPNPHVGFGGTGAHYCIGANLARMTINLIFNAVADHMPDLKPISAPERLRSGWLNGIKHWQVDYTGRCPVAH

Row | Compound | Kd (CYP142 [2]) | Kd (CYP125 [3]) | IC50 (Mtb CDC1551 [5]; [15]) | IC50 (Mtb CDC1551 [5]; [16]) | IC50 (CYP125 [6]) | Ki (CYP125 [6]) | MIC99 (Mtb H37Rv [7]; [17]) | MIC99 (Mtb CDC1551 [8]; [18]) | IC50 (Mtb H37Rv [9]; [20]) | IC50 (Mtb H37Rv [9]; [21]) | other results
1 | CC(=O)Nc1ccc(Cc2ccncc2)cc1 [3f, N-(4-(Pyridin-4-ylmethyl)phenyl)acetamide] | 1.4 ± 0.36 µM | 18 ± 0.56 µM |  |  |  |  |  |  |  |  | CYP142 Δλmax (nm) (CYP142 [1]): 2 nm; CYP125 Δλmax (nm) LS (CYP125 [4]): 13 nm
2 | CS(=O)(=O)Nc1ccc(Cc2ccncc2)cc1 [3g] | 1.1 ± 0.14 µM | 0.23 ± 0.04 µM |  |  |  |  |  |  |  |  | CYP142 Δλmax (nm) (CYP142 [1]): 0 nm; CYP125 Δλmax (nm) LS (CYP125 [4]): 30 nm; CYP125 LS/HS (CYP125 [4]; ratio of low spin to high spin CYP125): 2.7
3 | O=C(Nc1ccc(Cc2ccncc2)cc1)c1ccccc1 [5a, N-(4-(Pyridin-4-ylmethyl)phenyl)benzamide] | 1.1 ± 0.1 µM | 0.54 ± 0.22 µM | 19 µM | 38 µM | 4.3 ± 0.5 µM | 1.3 µM | 25 µM (≈ 7.21 µg/mL) | > 50 µM | 19 µM | 38 µM | MIC99 (Mtb CDC1551 [8]; [19]): >50 µM
4 | O=C(Nc1ccc(Nc2ccncc2)cc1)c1ccccc1 [5b, N-(4-(Pyridin-4-ylamino)phenyl)benzamide] | 2.83 ± 0.001 µM | 11 ± 1.8 µM |  |  |  |  |  |  |  |  | 
5 | CN(c1ccncc1)c1ccc(NC(=O)c2ccccc2)cc1 [5c, N-(4-(Methyl(pyridin-4-yl)amino)phenyl)benzamide] | 3.1 ± 0.18 µM | 7 ± 0.21 µM |  |  | 26 ± 2.4 µM | 7.7 µM | > 50 µM |  | 9.4 µM | 19 µM | MIC99 (Mtb H37Rv [7]; [19]): >50 µM
6 | O=C(NCc1ccc2[nH]ccc2c1)c1cccc(Cc2ccncc2)c1 [5e, N-((1H-Indol-5-yl)methyl)-3-(pyridin-4-ylmethyl)benzamide] |  | 4 ± 0.36 µM | 0.07 µM | 19 µM | 9.2 ± 0.89 µM | 2.7 µM | 13 µM (≈ 4.44 µg/mL) | 6.3 µM (≈ 2.15 µg/mL) | 2.3 µM | 19 µM | 
7 | O=C(NCc1ccc2[nH]ccc2c1)c1ccc(Cc2ccncc2)cc1 [5f, N-((1H-Indol-5-yl)methyl)-4-(pyridin-4-ylmethyl)benzamide] | 3.2 ± 0.04 µM | 0.59 ± 0.24 µM | > 50 µM | > 50 µM | 3.6 ± 0.41 µM | 1.1 µM | > 50 µM | > 50 µM | > 50 µM | > 50 µM | IC50 (Mtb H37Rv [10]): > 50 µM; IC50 (Mtb CDC1551 [11]; [22]): > 50 µM; IC50 (Mtb CDC1551 [11]; [23]): > 50 µM; MIC99 (Mtb H37Rv [7]; [19]): >50 µM; MIC99 (Mtb CDC1551 [8]; [19]): >50 µM
8 | O=C(NCc1ccc2[nH]ccc2c1)c1cccc(Nc2ccncc2)c1 [5g, N-((1H-Indol-5-yl)methyl)-3-(pyridin-4-ylamino)benzamide] |  | 3.8 ± 0.18 µM | 9.4 µM | 38 µM | 25 ± 2.4 µM | 7.1 µM | 13 µM (≈ 4.45 µg/mL) | 25 µM (≈ 8.56 µg/mL) | < 5 µM | 9.4 µM | IC50 (Mtb H37Rv [9]; 1 week post-compound treatment, read-out: ATP-IC50 (W1) H37Rv, cholesterol): 4.7 µM
9 | C[C@@H](NC(=O)c1cccc(Cc2ccncc2)c1)c1ccccc1 [5h, (R)-N-(1-Phenylethyl)-3-(pyridin-4-ylmethyl)benzamide] | 3.3 ± 0.29 µM | 40 ± 2 µM | 2.3 µM | 38 µM |  |  | 25 µM (≈ 7.91 µg/mL) | 25 µM (≈ 7.91 µg/mL) | 9.4 µM | 19 µM | IC50 (Mtb CDC1551 [11]; [22]): 19 µM
10 | C[C@@H](NC(=O)c1ccc(Cc2ccncc2)cc1)c1ccccc1 [5i, (R)-N-(1-Phenylethyl)-4-(pyridin-4-ylmethyl)benzamide] | 0.64 ± 0.47 µM | 7.4 ± 1 µM | 2.3 µM | 38 µM | 33 ± 3.7 µM | 9.8 µM | 25 µM (≈ 7.91 µg/mL) | 25 µM (≈ 7.91 µg/mL) | 9.4 µM | 4.7 µM | IC50 (Mtb CDC1551 [11]; [22]): 19 µM
11 | O=S(=O)(Nc1ccc(Cc2ccncc2)cc1)c1ccccc1 [5j, N-(4-(Pyridin-4-ylmethyl)phenyl)benzenesulfonamide] |  | 0.27 ± 0.02 µM | 9.4 µM | > 50 µM | 1.5 ± 0.16 µM | 0.44 µM | 50 µM (≈ 16.2 µg/mL) | 25 µM (≈ 8.11 µg/mL) | 38 µM | 50 µM | IC50 (Mtb H37Rv [10]): 19 µM; IC50 (Mtb CDC1551 [11]; [22]): 38 µM; IC50 (Mtb CDC1551 [11]; [23]): 38 µM
12 | COc1ccc(CNc2ccc(N(C)c3ccncc3)cc2)cc1 [5n, N^1-(4-Methoxybenzyl)-N^4-methyl-N^4-(pyridin-4-yl)benzene-1,4-diamine] | 0.2 ± 0.01 µM | 2.9 ± 0.2 µM |  |  | 12 ± 1.2 µM | 3.6 µM | 50 µM (≈ 16 µg/mL) |  | 4.7 µM | 9.4 µM | 
13 | COc1ccc(C(C)Nc2ccc(Cc3ccncc3)cc2)cc1 (stereo not shown) [5o, N-(1-(4-Methoxyphenyl)ethyl)-4-(pyridin-4-ylmethyl)aniline] |  | 0.8 ± 0.32 µM |  |  | 4.2 ± 0.48 µM | 1.2 µM | 19 µM (≈ 6.05 µg/mL) |  | 0.15 µM | 0.59 µM | IC50 (Mtb H37Rv [10]): 2.3 µM
14 | CS(=O)(=O)c1cccc(CNc2ccc(Cc3ccncc3)cc2)c1 [5p, N-(3-(Methylsulfonyl)benzyl)-4-(pyridin-4-ylmethyl)aniline] |  | 0.35 ± 0.19 µM | 2.3 µM | 19 µM | 10 ± 0.95 µM | 3.1 µM | 13 µM (≈ 4.58 µg/mL) | 13 µM (≈ 4.58 µg/mL) | 1.2 µM | 4.7 µM | 
15 | NNC(=O)c1ccncc1 [Isoniazid, isoniazid, reference compound] |  |  |  |  |  |  | < 0.1 µM |  | < 0.1 µM | < 0.1 µM | MIC90 (H37Rv Mtb; 168 h, MABA 1 week post-compound treatment, glucose-casitone (standard) media, read-out: MIC90 (W1) H37Rv): 0.19 to 0.39 µM (≈ 0.0261 to 0.0535 µg/mL); MIC90 (H37Rv Mtb; 336 h, MABA 2 weeks post-compound treatment, read-out: MIC90 (W2) H37Rv): 0.39 µM (≈ 0.0535 µg/mL); MIC90 (W1) MDR-TB ([12]; MABA 1 week post-compound treatment, K26b00MR 113): 12.5 to 25 µM; fold higher value against MDR-TB than H37Rv ([12]; MABA, 1 and 2 weeks): 50–150 fold; MIC90 ([12]; 168 h, read-out: MIC90 (W1) MDR-TB, MABA 1 week post-compound treatment, K26b00MR 113): 13 to 25 µM (≈ 1.78 to 3.43 µg/mL); MIC90 ([12]; 336 h, read-out: MIC90 (W2) MDR-TB, MABA 2 weeks post-compound treatment, K26b00MR 113): 50 µM (≈ 6.86 µg/mL); MIC99 (Mtb H37Rv [7]; cholesterol as sole carbon source, 2 weeks post-compound treatment, listed as Inh.): <0.1 µM; IC50 [13]: 0.1 ± 0.01 µM
16 | COc1c(N2C[C@@H]3CCCN[C@@H]3C2)c(F)cc2c(=O)c(C(=O)O)cn(C3CC3)c12 [Moxifloxacin, moxifloxacin, reference compound] |  |  |  |  |  |  |  |  |  |  | IC50 (Mtb (Erdman)): 0.33 ± 0.01 µM
17 | Nc1ccc(C(=O)O)c(O)c1 [p-aminosalicylic acid, reference compound] |  |  | 0.04 µM | 2.3 µM |  |  |  |  | 0.04 µM | 0.29 µM | IC50 (Mtb H37Rv [10]): < 0.04 µM and 0.07 µM; IC50 (Mtb CDC1551 [11]; [22]): < 0.04 µM; IC50 (Mtb CDC1551 [11]; [23]): 0.07 µM; MIC99 (Mtb H37Rv [7]; Mycobacterium tuberculosis, H37RV, 336 h): 0.19 µM (≈ 0.0291 µg/mL); MIC99 (Mtb CDC1551 [8]; Mycobacterium tuberculosis, CDC1551, 336 h): 0.39 µM (≈ 0.0597 µg/mL); IC50 [13]: 2.4 ± 0.12 µM
18 | N-Phenylpyridin-4-amine [2a] |  | 35 ± 5.8 µM |  |  |  |  |  |  |  |  | CYP142 Δλmax (nm) (CYP142 [1]): 4 nm; Kd (CYP142 [14]): 1.1 ± 0.2 µM; CYP125 Δλmax (nm) HS (CYP125 [4]; high spin population, '-' = no HS maxima present): 0 nm
